≈ marks a conversion by molar mass, not a printed value. Square brackets hold non-standard residues; d marks the D form. Peptide text beside a SMILES is read from it. hIle = CC[C@H](C)C[C@H](N)C(=O)O; Cha = N[C@@H](CC1CCCCC1)C(=O)O
Tests used:
[1] = Hemolytic activity against Red blood cells (unknown origin) incubated for 1 hr by spectrophotometric analysis; assay type: toxicity, cell-based, Erythrocyte
[2] = tested on: Staphylococcus aureus; assay: Antibacterial activity against Staphylococcus aureus assessed as bacterial growth inhibition incubated for 20 hrs by broth microdilution assay; assay type: functional
[3] = tested on: Bacillus subtilis; assay: Antibacterial activity against Bacillus subtilis assessed as reduction in bacterial growth incubated for 20 hrs by broth microdilution assay; assay type: functional
[4] = tested on: Escherichia coli; assay: Antibacterial activity against Escherichia coli assessed as reduction in bacterial growth incubated for 20 hrs by broth microdilution assay; assay type: functional
[5] = tested on: Pseudomonas aeruginosa; assay: Antibacterial activity against Pseudomonas aeruginosa assessed as reduction in bacterial growth incubated for 20 hrs by broth microdilution assay; assay type: functional
[6] = Hemolytic activity in mouse RBC incubated for 1 hr; assay type: toxicity, cell-based, Erythrocyte; settings: red blood cells
[7] = Hemolytic activity in human RBC; assay type: toxicity, cell-based, Erythrocyte; settings: red blood cells
[8] = tested on: Staphylococcus aureus; assay: Antimicrobial activity against Staphylococcus aureus ATCC 25923 assessed as reduction in microbial growth incubated for 18 to 20 hrs by Mueller-Hinton broth based microdilution method; assay type: functional; settings: time 18-20 hrs
[9] = tested on: Enterococcus faecium; assay: Antimicrobial activity against Enterococcus faecium assessed as reduction in microbial growth incubated for 18 to 20 hrs by Mueller-Hinton broth based microdilution method; assay type: functional; settings: time 18-20 hrs
[10] = tested on: Bacillus subtilis; assay: Antimicrobial activity against Bacillus subtilis ATCC 23857 assessed as reduction in microbial growth incubated for 18 to 20 hrs by Mueller-Hinton broth based microdilution method; assay type: functional; settings: time 18-20 hrs
[11] = tested on: Escherichia coli; assay: Antibacterial activity against Escherichia coli ATCC 25922 assessed as bacterial growth inhibition incubate for 18 to 20 hrs by MH broth based assay; assay type: functional; settings: time 18-20 hrs

Structure (SMILES)	HC50 at 1 h [1] [µM]	MIC [2] [µM]	MIC [3] [µM]	MIC [4] [µM]	MIC [5] [µM]	HC50 at 1 h [6] [µM]	HC50 [7] [µM]	MIC [8] [µM]	MIC [9] [µM]	MIC [10] [µM]	MIC [11] [µM]
CC[C@H](C)[C@H](NC(=O)CCCCCNC(=O)[C@H](CC(C)C)NC(=O)[C@H](CC(C)C)NC(=O)[C@@H](NC(=O)[C@H](CCCCN)NC(=O)[C@@H](NC(=O)[C@H](CCCNC(=N)N)NC(=O)[C@H](CCCCN)NC(=O)[C@H](CC(C)C)NC(=O)[C@H](CC(C)C)NC(=O)CN)[C@@H](C)CC)[C@@H](C)O)C(=O)N[C@@H](CC(N)=O)C(=O)N[C@@H](CC(C)C)C(=O)N[C@@H](CCCCN)C(=O)N[C@@H](C)C(=O)N[C@@H](CC(C)C)C(=O)N[C@@H](C)C(=O)N[C@@H](C)C(=O)N[C@@H](CC(C)C)C(=O)N[C@@H](C)C(=O)N[C@@H](CCCCN)C(=O)N[C@@H](CCCCN)C(=O)N[C@H](C(=O)N[C@@H](CC(C)C)C(N)=O)[C@@H](C)CC	60.2	4 (≈ 10.9 µg/mL)	2 (≈ 5.46 µg/mL)	2 (≈ 5.46 µg/mL)	2 (≈ 5.46 µg/mL)	–	–	–	–	–	–
CC(C)C[C@H](NC(=O)[C@H](CC(C)C)NC(=O)[C@H](CCCCN)NC(=O)[C@H](CCCCN)NC(=O)[C@H](Cc1c[nH]c2ccccc12)NC(=O)[C@H](CCCNC(=N)N)NC(=O)[C@H](CCCCN)NC(=O)[C@H](CC(C)C)NC(=O)[C@H](CC(C)C)NC(=O)[C@@H](N)Cc1c[nH]c2ccccc12)C(N)=O	–	–	–	–	–	> 200	> 200	32	16	16	64 (≈ 88.5 µg/mL)
CC[C@H](C)[C@H](NC(=O)[C@H](CCCCN)NC(=O)[C@H](CCCCN)NC(=O)[C@H](C)NC(=O)[C@H](CC(C)C)NC(=O)[C@H](C)NC(=O)[C@H](C)NC(=O)[C@H](CC(C)C)NC(=O)[C@H](C)NC(=O)[C@H](CCCCN)NC(=O)[C@H](CC(C)C)NC(=O)[C@H](CC(N)=O)NC(=O)[C@@H](NC(=O)[C@H](CC(C)C)NC(=O)[C@H](CC(C)C)NC(=O)[C@H](CC(C)C)NC(=O)[C@@H](NC(=O)[C@H](CCCCN)NC(=O)[C@@H](NC(=O)[C@H](CCCNC(=N)N)NC(=O)[C@H](CCCCN)NC(=O)[C@H](CC(C)C)NC(=O)[C@H](CC(C)C)NC(=O)CN)[C@@H](C)CC)[C@@H](C)O)[C@@H](C)CC)C(=O)N[C@@H](CC(C)C)C(N)=O (H-GLLKRIKTLLLINLKALAALAKKIL-NH2)	35.6	8 (≈ 21.8 µg/mL)	8 (≈ 21.8 µg/mL)	8 (≈ 21.8 µg/mL)	16 (≈ 43.7 µg/mL)	–	–	–	–	–	–
CC[C@H](C)[C@H](NC(=O)[C@H](CCCCN)NC(=O)[C@H](CCCCN)NC(=O)[C@H](C)NC(=O)[C@H](CC(C)C)NC(=O)[C@H](C)NC(=O)[C@H](C)NC(=O)[C@H](CC(C)C)NC(=O)[C@H](C)NC(=O)[C@H](CCCCN)NC(=O)[C@H](CC(C)C)NC(=O)[C@H](CC(N)=O)NC(=O)[C@@H](NC(=O)[C@@H]1CCCN1C(=O)[C@H](CC(C)C)NC(=O)[C@H](CC(C)C)NC(=O)[C@@H](NC(=O)[C@H](CCCCN)NC(=O)[C@@H](NC(=O)[C@H](CCCNC(=N)N)NC(=O)[C@H](CCCCN)NC(=O)[C@H](CC(C)C)NC(=O)[C@H](CC(C)C)NC(=O)CN)[C@@H](C)CC)[C@@H](C)O)[C@@H](C)CC)C(=O)N[C@@H](CC(C)C)C(N)=O (H-GLLKRIKTLLPINLKALAALAKKIL-NH2)	83.8	4 (≈ 10.9 µg/mL)	2 (≈ 5.43 µg/mL)	2 (≈ 5.43 µg/mL)	2 (≈ 5.43 µg/mL)	–	–	–	–	–	–
CC[C@H](C)C[C@H](NC(=O)[C@H](CCCNC(=N)N)NC(=O)[C@H](CCCCN)NC(=O)[C@H](CC(C)C)NC(=O)[C@H](CC1CCCCC1)NC(=O)CN)C(=O)N[C@@H](CCCCN)C(=O)N[C@H](C(=O)N[C@@H](CC(C)C)C(=O)N[C@@H](CC1CCCCC1)C(N)=O)[C@@H](C)O (H-G[Cha]LKR[hIle]KTL[Cha]-NH2)	–	–	–	–	–	31.2	31.2	5.3	3.2	–	6.25 (≈ 7.8 µg/mL)
